Source: EP2987533B1, “7-substituted piperazin-1-yl fluoroquinolone compounds, their use in the treatment of cancer, pharmaceutical compositions and a method for preparation” (priority 2014, dated 2016)

Tests used:
melanoma = test: NCI five-dose SRB assay, subpanel average; settings: 48 h
[1] = system: 60 human tumor cell line panel; test: NCI 60 cell line one-dose SRB primary anticancer assay; assay type: cell-based; settings: 60 cell lines assay in one dose, 10µM (title; head prints 10.0 mM), 48 h
leukemia = test: NCI five-dose SRB assay, subpanel average; settings: 48 h
prostate cancer = test: NCI five-dose SRB assay, subpanel average; settings: 48 h
MALME-3M = test: NCI one-dose SRB growth assay; assay type: cell-based; settings: Homo sapiens; MALME-3M (Melanoma), 10^-5 M, 48 h; read-out: % Growth Inhibition (GI %)
Procedure: (§1) A primary anticancer assay was performed for an approximately 60 human tumor cell line panel derived from nine neoplastic diseases, in accordance with the protocol of the Drug Evaluation Branch, National Cancer Institute, Bethesda, MD (Monks A. et al., J. Natl. Cancer Inst 1991, 83, 757-766; Boyd M.R. and Paull K.D., Drug. Dev. Res. 1995, 34, 91-109; Shoemaker R.H., Nat. Rev. Cancer 2006, 6, 813-823). Briefly, tested compounds were added to the culture at a single concentration (10^-5M), and the cultures were incubated for 48 h. End point determinations were made with a protein binding dye, sulforhodamine B (SRB). The results for each tested compound were reported as the growth percentage of the treated cells when compared to that of the untreated control cells. The percentage growth was evaluated spectrophotometrically versus controls not treated with test agents.

UACC-257 = test: NCI one-dose SRB growth assay; assay type: cell-based; settings: Homo sapiens; UACC-257 (Melanoma), 10^-5 M, 48 h; read-out: % Growth Inhibition (GI %)
Procedure: as §1

A549/ATCC = test: NCI one-dose SRB growth assay; assay type: cell-based; settings: Homo sapiens; A549/ATCC (Non-Small Cell Lung Cancer), 10^-5 M, 48 h; read-out: % Growth Inhibition (GI %)
Procedure: as §1

COLO 205 = test: NCI one-dose SRB growth assay; assay type: cell-based; settings: Homo sapiens; COLO 205 (Colon Cancer), 10^-5 M, 48 h; read-out: % Growth Inhibition (GI %)
Procedure: as §1

HT29 = test: NCI one-dose SRB growth assay; assay type: cell-based; settings: Homo sapiens, HT-29; HT29 (Colon Cancer), 10^-5 M, 48 h; read-out: % Growth Inhibition (GI %)
Procedure: as §1

T-47D = test: NCI one-dose SRB growth assay; assay type: cell-based; settings: Homo sapiens, T47D; T-47D (Breast Cancer), 10^-5 M, 48 h; read-out: % Growth Inhibition (GI %)
Procedure: as §1

MDA-MB-468 = test: NCI one-dose SRB growth assay; assay type: cell-based; settings: Homo sapiens; MDA-MB-468 (Breast Cancer), 10^-5 M, 48 h; read-out: % Growth Inhibition (GI %)
Procedure: as §1

HOP-92 = test: NCI one-dose SRB growth assay; assay type: cell-based; settings: Homo sapiens; HOP-92 (Non-Small Cell Lung Cancer), 10^-5 M, 48 h; read-out: % Growth Inhibition (GI %)
Procedure: as §1

MDA-MB-435 = test: NCI one-dose SRB growth assay; assay type: cell-based; settings: Homo sapiens; MDA-MB-435 (Melanoma), 10^-5 M, 48 h; read-out: % Growth Inhibition (GI %)
Procedure: as §1

RXF 393 = test: NCI one-dose SRB growth assay; assay type: cell-based; settings: Homo sapiens; RXF 393 (Renal Cancer), 10^-5 M, 48 h; read-out: % Growth Inhibition (GI %)
Procedure: as §1

LOX IMVI = test: NCI one-dose SRB growth assay; assay type: cell-based; settings: Homo sapiens; LOX IMVI (Melanoma), 10^-5 M, 48 h; read-out: % Growth Inhibition (GI %)
Procedure: as §1

BT-549 = test: NCI one-dose SRB growth assay; assay type: cell-based; settings: Homo sapiens; BT-549 (Breast Cancer), 10^-5 M, 48 h; read-out: % Growth Inhibition (GI %)
Procedure: as §1

OVCAR-8 = test: NCI one-dose SRB growth assay; assay type: cell-based; settings: Homo sapiens; OVCAR-8 (Ovarian Cancer), 10^-5 M, 48 h; read-out: % Growth Inhibition (GI %)
Procedure: as §1

SNB-75 = test: NCI one-dose SRB growth assay; assay type: cell-based; settings: Homo sapiens; SNB-75 (CNS Cancer), 10^-5 M, 48 h; read-out: % Growth Inhibition (GI %)
Procedure: as §1

A498 = test: NCI one-dose SRB growth assay; assay type: cell-based; settings: Homo sapiens; A498 (Renal Cancer), 10^-5 M, 48 h; read-out: % Growth Inhibition (GI %)
Procedure: as §1

NCI-H23 = test: NCI one-dose SRB growth assay; assay type: cell-based; settings: Homo sapiens; NCI-H23 (Non-Small Cell Lung Cancer), 10^-5 M, 48 h; read-out: % Growth Inhibition (GI %)
Procedure: as §1

NSC lung cancer = test: NCI five-dose SRB assay, subpanel average; settings: 48 h
CNS cancer = test: NCI five-dose SRB assay, subpanel average; settings: 48 h
renal cancer = test: NCI five-dose SRB assay, subpanel average; settings: 48 h
colon cancer = test: NCI five-dose SRB assay, subpanel average; settings: 48 h
ovarian cancer = test: NCI five-dose SRB assay, subpanel average; settings: 48 h
[2] = system: full panel of about 60 human tumor cell lines; test: NCI five-dose SRB assay, full panel mean; settings: 48 h
[3] = Homo sapiens, read-out: GI50 (median growth inhibitory)
[4] = Homo sapiens, read-out: LC50 (median lethal)

For CCn1cc(C(=O)O)c(=O)c2cc(F)c(N3CCN(S(=O)(=O)c4cccc5ccccc45)CC3)cc21 [Compound 7a], the GI50 (melanoma; [3]) was 3.2 µM, the CC50 (melanoma; [4]) was 99.7 µM and the “TGI (total growth inhibitory)” value (melanoma; average over melanoma subpanel, five concentrations) was 28.33 µM. For the same molecule, the “PCE (Positive cytotoxic effect: ratio between number of cell lines with percentage growth inhibition from 10 to >100 and total number of cell lines)” value [1] was 58/58, the “RGI % (Range of growth inhibition percentage)” value [1] was >100.0 to 40.83% and the inhibition at 10 µM ([1]; Homo sapiens, read-out: MGI % (Mean growth inhibition percentage)) was 93.8%. The GI50 (leukemia; [3]) was 3.48 µM, the CC50 (leukemia; [4]) was > 100 µM and the “TGI (total growth inhibitory)” value (leukemia; average over leukemia subpanel, five concentrations) was 63.22 µM. The GI50 (prostate cancer; [3]) was 3.71 µM, the CC50 (prostate cancer; [4]) was > 100 µM and the “TGI (total growth inhibitory)” value (prostate cancer; average over prostate cancer subpanel, five concentrations) was “c (Compounds showed values > 100µM)”. For the same molecule, the inhibition at 10 µM (MALME-3M) was > 100%, the inhibition at 10 µM (UACC-257) was 86% and the inhibition at 10 µM (A549/ATCC) was 96.2%. For the same molecule, the inhibition at 10 µM (COLO 205) was > 100%, the inhibition at 10 µM (HT29) was 96% and the inhibition at 10 µM (T-47D) was 94.7%. For the same molecule, the inhibition at 10 µM (MDA-MB-468) was 95.2%, the inhibition at 10 µM (HOP-92) was > 100% and the inhibition at 10 µM (MDA-MB-435) was 88.6%. The inhibition at 10 µM (RXF 393) was 71%, the inhibition at 10 µM (LOX IMVI) was > 100% and the inhibition at 10 µM (BT-549) was > 100%. For the same molecule, the inhibition at 10 µM (OVCAR-8) was 91.6%, the inhibition at 10 µM (SNB-75) was 85.9% and the inhibition at 10 µM (A498) was > 100%. The inhibition at 10 µM (NCI-H23) was 99.9%, the GI50 (NSC lung cancer; [3]) was 3.04 µM and the CC50 (NSC lung cancer; [4]) was > 100 µM. For the same molecule, the “TGI (total growth inhibitory)” value (NSC lung cancer; average over NSC lung cancer subpanel, five concentrations) was 46.59 µM, the GI50 (CNS cancer; [3]) was 3.09 µM and the CC50 (CNS cancer; [4]) was > 100 µM. For the same molecule, the “TGI (total growth inhibitory)” value (CNS cancer; average over CNS cancer subpanel, five concentrations) was 63.40 µM, the GI50 (renal cancer; [3]) was 3.5 µM and the CC50 (renal cancer; [4]) was > 100 µM. The “TGI (total growth inhibitory)” value (renal cancer; average over renal cancer subpanel, five concentrations) was 63.09 µM, the GI50 (colon cancer; [3]) was 3.39 µM and the CC50 (colon cancer; [4]) was 86.8 µM. The “TGI (total growth inhibitory)” value (colon cancer; average over colon cancer subpanel, five concentrations) was 67.85 µM, the GI50 (ovarian cancer; [3]) was 3.07 µM and the CC50 (ovarian cancer; [4]) was > 100 µM. The “TGI (total growth inhibitory)” value (ovarian cancer; average over ovarian cancer subpanel, five concentrations) was 62.35 µM, the CC50 ([2]; Homo sapiens, 60 cell, read-out: LC50 MG-MID (Full panel mean-graph midpoint)) was 95.5 µM and the GI50 ([2]; Homo sapiens, read-out: GI50 MG-MID (Full panel mean-graph midpoint)) was 3.09 µM. The “TGI MG-MID (Full panel mean-graph midpoint)” value ([2]; full panel, five concentrations) was 29.51 µM.
